Experiments:
elevated PVR = assay: GBS-induced pulmonary hypertension, pilot experiments; format: in vivo, rats
Experimental: Experimental Protocol is as follows. Fifteen rats were randomly assigned to 1 of 3 groups. Measurements taken at each time point included arterial and mixed venous blood gases, inert gas determinations in samples of arterial blood, mixed venous blood and expired gas, and TNF and TxB2 assays, mean P sa′ mean PAP, P pcw′ and CO from arterial blood, and PVR (PVR=PAP−P pcw/CO), and systemic vascular resistance (SVR=P sa/CO) were calculated at each time point.
After baseline measurements, all rats received continuous infusion of GBS (1.25×10^9 cfu/kg/hr) for 5 hours. Repeat measurements were made at 0.5, 4.0, 4.5, and 5.0 hr of GBS infusion. After 4 hours of GBS infusion, treated animals received amr (amr 10 and amr 20) (Inocor lactate, Sterling Drug Co., New York, N.Y.); control animals (control) received the amr carrier solution containing lactic acid and sodium metabisulfite. Amr 10 rats (n=5; 11.2: t 4.1 days; 3.0: t 0.5 kg) received an amr bolus (8 mg/kg) followed by a continuous infusion of amr diluted with normal saline (10 about g/kg/min) for 1 hour. Amr 20 rats (n=5; 9.2 t 2.2 days; 2.2: t 0.4 kg) received the same amr bolus (8 mg/kg) followed by a continuous infusion of amr diluted with normal saline (20 about g/kg/min) for 1 hour. […]

[1] = system: non-septic forms of pulmonary hypertension; conditions: infusion rates of 10 to 40 about g/kg/min, human studies; cited from earlier work
TNF-α = TNF-α (Homo sapiens, UniProt P01375); conditions: Fichtlscherer (2001); cited from earlier work
Chain of TNF-α (P01375 77-233 limits assumed): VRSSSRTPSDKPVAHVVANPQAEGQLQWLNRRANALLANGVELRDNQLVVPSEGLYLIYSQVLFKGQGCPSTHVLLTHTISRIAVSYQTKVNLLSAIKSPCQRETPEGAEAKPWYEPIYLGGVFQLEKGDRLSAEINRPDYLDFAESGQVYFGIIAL

Row | Compound | effect on elevated PVR (elevated PVR) | reversal of non-septic pulmonary hypertension [1] | systemic endothelial vasodilator capacity (TNF-α)
1 | CC(O)C(=O)O.Nc1cc(-c2ccncc2)c[nH]c1=O [amr] | acute reduction in elevated PVR | successful in reversing | –
2 | ETANERCEPT | – | – | profoundly improves

Reference: patent publication US20030170223A1, “Pulmonary vasodilator surfactant compositions and method of use” (Board of Trustees of Michigan State University, priority 2002, published 2003)
